Test results: patent publication US7897638B2, “Synthesis of nitrodibenzylfuran chromophore for photodeprotection of organic molecules” (Philadelphia Health & Education Corporation, priority 2005, dated 2011)
Read-outs that look alike come from different tables or passages of the source.

How the values were obtained:
[1] = widely used, commercially available caged compounds; cited from earlier work
Two-photon photolysis = format: physicochemical
Description: Two-photon photolysis (2PP) of a solution contains MNI-glutamate (1.4 mM) and NDBF-EGTA (0.1 mM), by raster scanning the solution (256 pulses, 4 ms each, 300 mW).

[2] = known standard; cited from earlier work
[3] = Quantum yield of photolysis by comparison with MNI-glutamate, HPLC; format: physicochemical; conditions: photolyzed at 350 nm, relative to MNI-glutamate; listed as NDBF Calcium
From the text: Inventors measured the quantum yield of photolysis of NDBF-EGTA by comparison with a known standard, 4-methoxy-7-nitroindolinyl(MNI)-glutamate (Matsuzaki, et al., 1999). A solution containing NDBF-EGTA and MNI-glutamate was photolyzed at 350 nm, in order to determine the relative % photolysis of the two caged compounds. The concentrations of the two compounds were set so that their chromophores would absorb the same amount of light (MNI/NDBF ratio 3.7:1), and so that the total optical density was 0.4. Under these conditions the same number of excited states are created simultaneously for both cages, making determination of the quantum for NBDF-EGTA more reliable. As a control, both cages were photolyzed separately to check that there was no interference from simultaneous photolysis. Inosine was also included in the photolysis reaction mixture, as a photochemically inert standard. MNI-glutamate has a quantum yield of photolysis of 0.085. […] Saturating [Ca] had no effect on this value.

[4] = Photochemical properties of caged compounds (Table 1); format: physicochemical; conditions: for ε/M^−1 cm^−1 (extinction coefficient): NDBF chromophore; for ε · φ (efficiency of use of the incident light): product of extinction coefficient and quantum yield
From the text: The extinction coefficient (ε) and the quantum yield (φ) are the two photochemical properties that define the efficiency of a chromophore. The former is an absolute value of a chromophore; the latter depends upon the exact nature of the photolyzed bond, as well as the chromophore itself. The four most widely used caged compounds (ATP, IP3, glutamate, Ca) with the ortho-nitrobenzyl chromophore have ε and φ in the range of 430-970 and 0.14-0.63. The product (ε·φ) for each caged compound defines the efficiency of use of the incident light.

Molecule | Rate/s^−1 (rate of release) [1] | φ (quantum yield) [1] | 2-photon cross-section (Two-photon photolysis) | quantum yield of photolysis [2] | φ (quantum yield of photolysis) [3] | ε/M^−1 cm^−1 (extinction coefficient) [4] | Rate/s^−1 (rate of release) ([4]; NDBF-caged calcium) | ε · φ (efficiency of use of the incident light) [4]
COc1cc(COP(=O)(O)OP(=O)(O)OP(=O)(O)OCC2OC(n3cnc4c(N)ncnc43)C(O)C2O)c([N+](=O)[O-])cc1OC (centres unmarked) [DMNB ATP] | 18 s⁻¹ | 0.07 |  |  |  |  |  | 
COc1cc(COP2(=O)OCC3OC(n4cnc5c(N)ncnc54)C(O)C3O2)c([N+](=O)[O-])cc1OC (centres unmarked) [DMNB cAMP] | 300 s⁻¹ | 0.05 |  |  |  |  |  | 
COc1ccc([N+](=O)[O-])c2c1CCN2C(=O)CC[C@H](N)C(=O)O [MNI-glutamate, 4-methoxy-7-nitroindolinyl(MNI)-glutamate, reference compound] |  |  | 0.06 GM | 0.085 |  |  |  | 
NDBF-EGTA |  |  | 0.3-0.6 GM |  | 0.6 | 18,400 M^−1 cm^−1 | 25,000 s^−1 | 11,000
nitrodibenzylfuran [NDBF] |  |  | at least 0.3 GM |  |  | 18,400 M^−1 cm^−1 |  | above 10,000
